Test results as given in patent US5232924A, “Heterocyclic compound having serotonine 2-receptor antagonistic activity” (Daiichi Pharmaceutical Co., Ltd., priority 1989, dated 1993).

Tests used:
Serotonin 2-Receptor = molecular target: T1, Serotonin 2-Receptor (Rattus norvegicus, UniProt P14842); assay: Binding activity to serotonin 2-receptor, 3H-Ketanserin, rat frontal cortex membrane preparation; conditions: calculated from the 50% inhibitory concentration, hydrochloride, read-out: dissociation constant for serotonin 2-receptor
T1 construct: from tissue; host or cells: intact anesthetized SD-SLC male rat (vascular response)
T1 sequence (P14842 whole entry): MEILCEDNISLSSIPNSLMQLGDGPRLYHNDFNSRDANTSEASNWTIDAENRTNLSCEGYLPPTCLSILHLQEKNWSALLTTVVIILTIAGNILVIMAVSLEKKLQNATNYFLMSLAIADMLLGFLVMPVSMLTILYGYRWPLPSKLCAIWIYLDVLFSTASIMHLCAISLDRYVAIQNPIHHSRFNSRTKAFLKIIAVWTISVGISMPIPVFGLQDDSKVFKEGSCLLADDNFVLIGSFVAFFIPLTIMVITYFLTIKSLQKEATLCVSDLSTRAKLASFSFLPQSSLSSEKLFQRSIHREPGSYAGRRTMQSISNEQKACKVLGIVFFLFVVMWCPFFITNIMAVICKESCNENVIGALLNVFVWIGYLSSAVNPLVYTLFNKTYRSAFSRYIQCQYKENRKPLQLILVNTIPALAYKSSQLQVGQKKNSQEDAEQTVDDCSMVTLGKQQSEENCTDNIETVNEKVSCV
Protocol: A male SD rat was decapitated under anesthesia, and the frontal cortex was removed to obtain a membrane preparation. ^3 H-Ketanserin and Methysergide were used as a labelled ligand and a non-specific binding reagent, respectively. These reagents and a test compound thereof were dissolved in a 5% methanol tris-buffer solution. After incubation, this solution was filtered by suction through a GF/B glass filter. Radioactivity of ^3 H-Ketanserin collected on the filter was measured with a liquid scintillation counter. A Scatchard plot was prepared from the resulting radioactivity values, and a dissociation constant of serotonin 2-receptor and a receptor density of the membrane preparation were obtained. Further, from the receptor-binding inhibition curve of the compound is obtained a 50% inhibitory concentration, and a dissociation constant indicative of the binding affinity to serotonin 2-receptor was calculated.

Mongrel dogs [1] = assay: Acute cardiac infarction model: LDA ligature and reperfusion in dogs; format: in vivo; conditions: dog, hydrochloride 1 mg/kg/hr intravenous drip, versus control group
Protocol: Mongrel dogs (body weight: 8 to 20 kg) under anesthesia were ventilated artificially and underwent a left thracotomy. […] A polyethylene cannula was inserted into the femoral artery, and the blood pressure and heart rate were recorded A cannula was inserted into the […] of a drug and also into the carotid artery from which a blood sample was to be taken. After stabilization period of the test preparation, LDA was ligated with a clamp. After 2 hours from the ligature, the clamp was released for reperfusion. After observation for the following 4 hours, the heart was excised. […] Then, the heart was washed and sliced at 1 cm intervals from the apex in the direction vertical to the longer axis. Each slice at the left ventricle was divided into a part which was in risk of cardiac infarction indicated by Evans' Blue stain (hereinafter referred to as risk area) and a normal area, and each area was weighed. The weight of the left ventricle (the sum of the risk area and the normal area) and that of the risk area of each slice were individually added up to obtain the weight of the whole left ventricle and the total weight of the risk area. Further, of each slice, the area of the risk area which was not stained with Evans' Blue and that of a cardiac infarction area within the risk area which remained white, i.e., which was stained neither in blue with Evans' Blue nor in red with triphenyltetrazolium chloride, were measured to obtain a ratio of cardiac infarction part to the whole left ventricle (infarction size). […] The experiment was conducted for the following groups.

Mongrel dogs [2] = assay: Angina pectoris model: partial LDA occlusion with cyclic coronary flow reduction in dogs; format: in vivo; conditions: dog, maleate 0.1 mg/kg i.v., compared with before administration
Protocol: Mongrel dogs (body weight: 8 to 20 kg) under anesthesia with pentobarbital (30 mg/kg, i.v.) were ventilated artificially and underwent a left thoracotomy. LDA was separated from connected tissues. A silicone tube for partial occlusion was placed around the LDA, and a probe for blood flow rate measurement was fixed in the neighborhood. The blood flow rate was measured with a pulse Doppler blood flow meter. A cannula was inserted into a branch distal to the occlusion site of the left coronary artery, and the coronary blood pressure was measured. A polyethylene cannula was inserted into the femoral artery, and the systemic blood pressure and heart rate were recorded. A cannula was inserted to the femoral vein for administration of a drug.
The effect of the drug was expressed in terms of frequency of the periodic reduction of blood flow rate.

For O=C(c1ccc(F)cc1)C1CCN(CCn2c(=O)nc3n(c2=O)CCCC3)CC1 [Example 1, 3-[2-[4-(4-Fluorobenzoyl)piperidin-1-yl]ethyl]-6,7,8,9-tetrahydro-2H-pyrido[1,2-a]-1,3,5-triazine-2,4(3H)-dione], the Ki (Serotonin 2-Receptor) was 15 nM, the “effect on myocardial infarction size (in words)” value (Mongrel dogs [1]) was “significantly reduced” and the “effect on frequency of the cyclic coronary flow reduction (in words)” value (Mongrel dogs [2]) was “significantly reduces”.
